Test results as given in patent US8383626B2, “Nitric oxide donors for inducing neurogenesis” (Henry Ford Health System, priority 1999, dated 2013).

How the values were obtained:
Assay type in all cases: in vivo, rat
[1] = test system: ischemic rats (MCA occlusion); assay: Behavior tests (foot-fault, adhesive removal) and body weight after MCA occlusion
Procedure: (§1) The MCA was occluded by placement of an embolus at the origin of the MCA.
(§2) The ischemic rats (n=9) were treated with the same volume of saline as a control group. Rats received intraperitoneal injection of BrdU (50 mg/kg) 24 hours after ischemia and daily intraperitoneal injection of BrdU for 14 consecutive days. All rats were sacrificed 28 days after ischemia.

[2] = test system: progenitor cells in the dentate gyrus and subventricular zone (SVZ); assay: Cell proliferation (BrdU immunoreactive cells) in ischemic rats treated with VIAGRA; conditions: 28 days after ischemia, vs saline
Procedure: as §1
(§3) For BrdU immunostaining, DNA was first denatured by incubating brain sections (6 μm) in 50% formamide 2×SSC at 65° C. for 2 hours and then in 2 N HCL at 37° C. for 30 minutes. Sections were then rinsed with Tris buffer and treated with 1% of H2O2 to block endogenous peroxidase. Sections were incubated with a primary antibody to BrdU (1:100) at room temperature for 1 hour and then incubated with biotinylated secondary antibody (1:200, Vector, Burlingame, Calif.) for 1 hour. Reaction products were detected using 3′3′-diaminobenzidine-tetrahydrochloride (DAB, Sigma). For TuJ1 immunostaining, coronal sections were incubated with the antibody against TuJ1 (1:1000) at 4° C. overnight and then incubated with a biotinylated horse anti-mouse immunoglobulin antibody at room temperature for 30 minutes. Reaction products were detected with DAB.
BrdU immunostained sections were digitized using a 40× objective (Olympus BX40) via the MCID computer imaging analysis system (Imaging Research, St. Catharines, Canada). BrdU immunoreactive nuclei were counted on a computer monitor to improve visualization and in one focal plane to avoid over-sampling. Structures were sampled by analyzing entire structures on each section (SVZ and dentate gyrus). All BrdU immunoreactive-positive nuclei in these areas are presented as the number of the BrdU immunoreactive cells/mm^2 and data shown are mean±SE. Density for the selected several sections was averaged to obtain a mean density value for each animal. For measurements of TuJ1 immunoreactivity, a threshold was applied to each digitized image (628×480 μm^2) for ensuring that the numbers of TuJ1 immunostained pixels were representative of the original TuJ1 immunoreactive patterns. All objects with fewer than 5 pixels were eliminated from measurements. Data are presented as a percentage of area, in which the number of TuJ1 immunostained pixels was divided by the total number of pixels in the area (628×480 μm^2). […]

[3] = test system: focal cerebral ischemia (MCA occlusion); assay: Infarct volume 28 days after ischemia
Procedure: as §1, §2

[4] = test system: TuJ1 immunoreactive cells; assay: TuJ1 immunoreactivity 28 days after ischemia; conditions: 2 or 5 mg/kg; vs contralateral hemisphere and saline treated ischemic rats
Procedure: as §3, with “3'3'-diaminobenzidine-tetrahydrochloride” for “3′3′-diaminobenzidine-tetrahydrochloride”, “DAB. BrdU immunostained sections were digitized using a 40× objective (Olympus BX40) via the MCID computer imaging analysis system (Imaging Research, St. Catharines, Canada). BrdU immunoreactive nuclei were counted on a computer monitor to improve visualization and in one focal plane to avoid over-sampling. Structures were sampled by analyzing entire structures on each section (SVZ and dentate gyrus). […] To examine the effects of […] on neurons, TuJ1 immunoreactivity was measured 28 days after ischemia.” for “DAB.”

ischemic rats (stroke) = assay: Battery of neurological functional tests (NSS, Rotarod, footfault, adhesive removal, body weight) after stroke; conditions: Group 3: iv at one day and two days after stroke; middle aged rats; vs control
Procedure: Administration of nitric oxide donor compound (DETA/NO) to normal and ischemic rats promotes neurogenesis in non-ischemic and ischemic brains. Since then, additional experiments have been performed to test the hypothesis that neurogenesis induced by DETA/NO promotes functional improvement after stroke; the data is provided herewith. Animals were administered (iv/ip) DETA/NO at one day (Group 1) or seven days (Group 2) after induction of stroke and followed by daily injection (ip) of DETA/NO over a period of seven days. Another NO donor compound (SNAP) was administered (iv) to ischemic rats at one day and two days after stroke (Group 3). Young (3 month old) rats were used in Groups 1 and 2. Middle aged rats (10 to 12 months old) were used in Group 3. A battery of neurological functional tests were measured from two days to forty-two days after stroke. These tests included 1) Neurological severity score (NSS) which measures motor, sensory and reflex functions and is similar to the contralateral neglect testing described in humans. The higher the score, the more severe the injury; 2) Rotarod test measures fore and hindlimb motor coordination and balance. Data are presented as percentage of baseline values; 3) Footfault test measures fore and hindlimb motor coordination. The higher the number, the more severe the injury; 4) Adhesive removal test measures sensorimotor impairments. Data are presented as time (seconds). The longer the time period, the more severe the injury; 5) Animal body weight.

Row | Structure (SMILES) | animal body weight loss ([1]; 2 mg/kg or 5 mg/kg initiated at 2 hours) | performance on the foot-fault test and the adhesive removal test ([1]; 2 mg/kg or 5 mg/kg initiated at 2 hours of onset of ischemia, during 2 to 21 days, vs saline) | foot-fault and adhesive removal tests ([1]; 2 mg/kg starting at 24 hours after onset of ischemia, during 7 to 28 days) | body weight loss ([1]; 2 mg/kg starting at 24 hours, at 4, 7 14, 21 and 28 days after ischemia) | numbers of BrdU immunoreactive cells in the ipsilateral SVZ ([2]; 2 mg/kg) | numbers of BrdU immunoreactive cells in the SVZ of both hemispheres ([2]; 5 mg/kg) | numbers of BrdU immunoreactive cells in the dentate gyrus of both hemispheres ([2]; oral 2 or 5 mg/kg initiated at 2 or 24 hours after stroke) | infarct volume 28 days after ischemia ([3]; 2 mg/kg starting at 24 hours, vs control group) | infarct volumes measured 28 days after ischemia ([3]; 2 or 5 mg/kg initiated at 2 hours, vs saline) | % of infarct volume at 28 days (Mean ± SE) ([3]; group 1: 2 h after MCAo, 2 mg/kg oral × 7days) | % of infarct volume at 28 days (Mean ± SE) ([3]; group 2: 2 h after MCAo, 5 mg/kg oral × 7days) | % of infarct volume at 28 days (Mean ± SE) ([3]; group 3: 24 h after MCAo, 2 mg/kg oral × 7days) | TuJ1 immunoreactive cells in the ipsilateral SVZ and striatum [4] | motor and sensorimotor functions (Rotarod, footfault, Adhesive removal tests) (ischemic rats (stroke))
1 | CCCc1nn(C)c2c(=O)[nH]c(-c3cc(S(=O)(=O)N4CCN(C)CC4)ccc3OCC)nc12 [VIAGRA™, sildenafil] | significantly reduced | significantly improved performance | significant (p<0.05) improvements | significant (p<0.05) reduction | significantly (p<0.05) increased | significantly (p<0.05) increased | significant (p<0.05) increases | no significant differences | not significantly different | 35.15 ± 3.25% | 37.67 ± 4.33% | 35.52 ± 0.93% | significantly (p<0.05) increased | 
2 | CC(=O)N[C@H](C(=O)O)C(C)(C)SN=O (racemic) [SNAP, S-nitroso-N-acetylpenicillamine] |  |  |  |  |  |  |  |  |  |  |  |  |  | significant improvements
